In US7439035B1, “Method of identifying or characterizing a compound that modulates ribonuclease H activity” (McGill University, priority 2001, dated 2008):

Experiments:
[1] = molecular target: T1, HIV-1 RT associated RNase H (Human immunodeficiency virus type 1 group M subtype B, UniProt P04585); assay: Gel electrophoretic RNase H assay, inhibition of HIV-1 RT associated RNase H; type: biochemical; conditions: 1.5 nM p51/p66 RT, 100 nM [32P]-RNA/DNA substrate, 37° C., densitometry of undegraded RNA; read-out: IC50 for BBNH obtained with the gel assay
T1 construct: final concentration of 2.5 nM of the p51/p66 RT heterodimer in the assay; made in house
Description: The gel electrophoretic assay used 5′-[^32P]-RNA of the sequence 5′-GAU CUG AGC CUG GGA GCU-3′ (SEQ ID NO: 7; identical to that of the FRET RNA, but lacking the 3′-fluorescein), prepared by the transfer of ^32P from [γ-^32P]-ATP in a reaction catalyzed by bacteriophage T4 polynucleotide kinase. This 5′[^32P]-RNA oligonucleotide was annealed to complementary unlabeled DNA of the sequence 5′-AGC TCC CAG GCT CAG ATC-3′ (SEQ ID NO: 8) to form the [^32P]-RNA/DNA hybrid duplex substrate. Aliquots of 100 μl of 50 mM Tris/HCl (pH 8.0, 37° C.), containing 60 mM KCl and 2.5 mM MgCl2, 1.5 nM p51/p66 RT and variable amounts of BBNH inhibitor were added to individual microtubes and incubated at 37° C. for 15 minutes. […] The extent of RNase H activity can be determined quantitatively by densitometric analysis of the time-dependent disappearance of the full-length RNA substrate and/or the appearance of the smaller degradation products. In this experiment, the bands corresponding to the undegraded 18 nucleotide 5′-[^32P]-RNA were quantified by densitometry, using the software UN-SCAN-IT (Silk Scientific, Orem, Utah). The IC50 values for BBNH inhibition of HIV-1 RT associated RNase H activity were calculated from plots of the residual undegraded 5′[^32P]-RNA vs. drug concentration.

[2] = molecular target: T1, HIV-1 RT associated RNase H; assay: FRET RNase H assay, inhibition of HIV-1 RT associated RNase H; type: biochemical; conditions: 1.5 nM p51/p66 RT, 100 nM 3'-fluorescein-RNA/5'-DABCYL-DNA substrate, 37° C., 15 min preincubation; read-out: IC50 for BBNH obtained with the FRET assay
Experimental: Microplate assay protocol for the measurement of RNase H activity using the RNA/DNA hybrid duplex substrate. Reaction assay mixtures contained 5 μl of a stock solution of 2.5 μM RNA/DNA hybrid duplex substrate added to 85 μl of assay buffer (50 mM Tris, pH 8.0, 37° C., containing 60 mM KCl and 2.5 mM MgCl2), prepared in the wells of a 96-well fluorescence microtiter plate, and warmed to 37° C. using the temperature control of the SpectraMax Gemini XS microplate spectrofluorometer (Molecular Devices). Reactions were started by the addition of 5 μl of a solution of recombinant HIV-1 reverse transcriptase (usually providing a final concentration of 2.5 nM of the p51/p66 RT heterodimer in the assay, and mixing using the automatic mixing function of the microplate spectrofluorometer. The reverse transcriptase for use in this assay was prepared as described by Fletcher R S et al, Single step purification of HIV-1 recombinant wild type and mutant reverse transcriptase, Protein Expression and Purification 7:27-32, 1996. The increase in fluorescence signal resulting from the loss of FRET due to the enzymatic hydrolysis of the RNA strand was measured over suitable time intervals (ranging from 3 minutes to 60 minutes), at an excitation wavelength of 490 nm and an emission wavelength of 528 nm, using a cut-off filter of 515 nm. […]

CC(C)(C)c1ccc(C(=O)NN=Cc2c(O)ccc3ccccc23)cc1 [BBNH, N-(4-tert-butylbenzoyl)-2-hydroxy-1-naphthaldehyde hydrazone]
IC50 [1]: 3000 ± 1200 nM
IC50 [2]: 2600 ± 500 nM
